Here are results for 6 compounds from article PMC4051630, “A Comparison of Protein Kinases Inhibitor Screening Methods Using Both Enzymatic Activity and Binding Affinity Determination” (PLoS ONE, 2014).

Read-outs that look alike come from different tables or passages of the source.

Common to all, as to assay: Differential Scanning Fluorimetry (DSF) Tm shift
What all share (format): binding
(In general: In DSF a fluorescence change marks the thermal transition of the protein.)

For one test, the target named is T1, DMPK Catalytic Domain (Homo sapiens, UniProt Q09013).
T1 construct: For all of them, we expressed and purified the catalytic domain separately; His-tag; made in house; host or cells: Escherichia coli
T1 sequence (Q09013 71-339 limits assumed): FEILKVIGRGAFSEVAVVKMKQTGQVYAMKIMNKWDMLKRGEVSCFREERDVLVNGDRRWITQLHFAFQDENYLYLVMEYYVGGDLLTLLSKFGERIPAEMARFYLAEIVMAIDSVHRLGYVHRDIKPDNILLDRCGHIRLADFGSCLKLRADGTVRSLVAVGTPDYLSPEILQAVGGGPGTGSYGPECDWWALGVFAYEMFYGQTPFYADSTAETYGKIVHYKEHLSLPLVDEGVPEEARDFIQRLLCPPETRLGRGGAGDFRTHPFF
The note with it: 2 µM protein, 10 µM inhibitor, average of 3 experiments, each in duplicate.

For another test, the target named is T2, CDK2 + Cyclin E (Homo sapiens, UniProt P24941).
T2 construct: CDK2 (P24941); 1–299; His-tag; made in house; host or cells: Escherichia coli

The target of a further test is T3, AKT3 Catalytic Domain (Homo sapiens, UniProt Q9Y243).
T3 construct: AKT3 (Q9Y243); CD; His-tag; made in house; host or cells: Escherichia coli
The note with it: 2 µM protein, 10 µM inhibitor, average of 3 experiments, each in duplicate.

For test [1], the target named is T4, PAK4 Catalytic Domain+PBD (Homo sapiens, UniProt O96013).
T4 construct: for 8, we also made a longer version containing one or more additional domains; His-tag; made in house; host or cells: Escherichia coli
To be noted: 2 µM protein, 10 µM inhibitor, average of 3 experiments, each in duplicate.

For the next test, the target named is T5, CHK2 Catalytic Domain (Homo sapiens, UniProt O96017).
T5 construct: For all of them, we expressed and purified the catalytic domain separately; His-tag; made in house; host or cells: Escherichia coli
To be noted: 2 µM protein, 10 µM inhibitor, average of 3 experiments, each in duplicate.

The next test deals with T6, STK3 Catalytic Domain (Homo sapiens, UniProt Q13188).
T6 construct: For all of them, we expressed and purified the catalytic domain separately; His-tag; made in house; host or cells: Escherichia coli
T6 sequence (Q13188 27-278 limits assumed): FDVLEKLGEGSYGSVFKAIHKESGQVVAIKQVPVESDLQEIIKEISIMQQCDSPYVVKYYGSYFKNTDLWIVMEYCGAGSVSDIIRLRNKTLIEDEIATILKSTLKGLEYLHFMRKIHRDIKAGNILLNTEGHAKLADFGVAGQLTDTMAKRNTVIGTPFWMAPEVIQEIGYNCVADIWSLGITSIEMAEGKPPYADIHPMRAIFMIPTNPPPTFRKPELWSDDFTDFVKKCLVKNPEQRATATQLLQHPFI
The note with it: 2 µM protein, 10 µM inhibitor, average of 3 experiments, each in duplicate.

Another test has as its target SRC Catalytic Domain (Homo sapiens, UniProt P12931). Also on record: For all of them, we expressed and purified the catalytic domain separately; His-tag; made in house; host or cells: Escherichia coli. The note with it: 2 µM protein, 10 µM inhibitor, average of 3 experiments, each in duplicate.
Test [2] addresses T7, STK3 Catalytic domain+SARAH (Homo sapiens, UniProt Q13188).
T7 construct: for 8, we also made a longer version containing one or more additional domains; His-tag; made in house; host or cells: Escherichia coli
T7 sequence (Q13188 1-491): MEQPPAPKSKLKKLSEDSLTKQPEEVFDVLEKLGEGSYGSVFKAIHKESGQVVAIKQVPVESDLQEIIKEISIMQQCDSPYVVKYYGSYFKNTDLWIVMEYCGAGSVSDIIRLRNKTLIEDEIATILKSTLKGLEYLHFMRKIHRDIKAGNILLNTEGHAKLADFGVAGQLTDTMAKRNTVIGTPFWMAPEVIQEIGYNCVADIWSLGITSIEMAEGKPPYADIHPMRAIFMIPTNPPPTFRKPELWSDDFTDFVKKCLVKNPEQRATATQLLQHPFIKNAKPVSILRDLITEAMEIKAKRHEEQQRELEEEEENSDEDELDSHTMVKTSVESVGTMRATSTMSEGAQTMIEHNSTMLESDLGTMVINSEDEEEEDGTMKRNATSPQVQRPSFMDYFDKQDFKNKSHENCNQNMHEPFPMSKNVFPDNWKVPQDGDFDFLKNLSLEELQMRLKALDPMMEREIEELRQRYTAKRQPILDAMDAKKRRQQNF
To be noted: 2 µM protein, 10 µM inhibitor, average of 3 experiments, each in duplicate.

The next test has as its target T8, FES Catalytic Domain (Homo sapiens, UniProt P07332).
T8 construct: For all of them, we expressed and purified the catalytic domain separately; His-tag; made in house; host or cells: Escherichia coli
The note with it: 2 µM protein, 10 µM inhibitor, average of 3 experiments, each in duplicate.

The next test deals with T9, CDK2 + Cyclin A (Homo sapiens, UniProt P24941).
T9 construct: CDK2 (P24941); 1–299; His-tag; made in house; host or cells: Escherichia coli

The next test addresses T10, FES Catalytic Domain+SH2 (Homo sapiens, UniProt P07332).
T10 construct: for 8, we also made a longer version containing one or more additional domains; His-tag; made in house; host or cells: Escherichia coli
To be noted: 2 µM protein, 10 µM inhibitor, average of 3 experiments, each in duplicate.

In the next test the target is T11, FAK2 Catalytic Domain (Homo sapiens, UniProt Q14289).
T11 construct: For all of them, we expressed and purified the catalytic domain separately; His-tag; made in house; host or cells: Escherichia coli
To be noted: 2 µM protein, 10 µM inhibitor, average of 3 experiments, each in duplicate.

For another test, the target named is T12, PAK4 Catalytic Domain (Homo sapiens, UniProt O96013).
T12 construct: For all of them, we expressed and purified the catalytic domain separately; His-tag; made in house; host or cells: Escherichia coli
The note with it: 2 µM protein, 10 µM inhibitor, average of 3 experiments, each in duplicate.

In another test the target is T13, PAK7 Catalytic Domain (Homo sapiens, UniProt Q9P286).
T13 construct: For all of them, we expressed and purified the catalytic domain separately; His-tag; made in house; host or cells: Escherichia coli
To be noted: 2 µM protein, 10 µM inhibitor, average of 3 experiments, each in duplicate.

Test [3] has as its target SRC Catalytic Domain+SH2+SH3 (Homo sapiens, UniProt P12931). To be noted: 2 µM protein, 10 µM inhibitor, average of 3 experiments, each in duplicate.
Setting [4] is: CDK2 + Cyclin E, 2 µM protein, 10 µM inhibitor, average of 3 experiments, each in duplicate.
Setting [5] is: CDK2 + Cyclin A, 2 µM protein, 10 µM inhibitor, average of 3 experiments, each in duplicate.

T4 sequence (O96013 whole entry, the tested form may be a part): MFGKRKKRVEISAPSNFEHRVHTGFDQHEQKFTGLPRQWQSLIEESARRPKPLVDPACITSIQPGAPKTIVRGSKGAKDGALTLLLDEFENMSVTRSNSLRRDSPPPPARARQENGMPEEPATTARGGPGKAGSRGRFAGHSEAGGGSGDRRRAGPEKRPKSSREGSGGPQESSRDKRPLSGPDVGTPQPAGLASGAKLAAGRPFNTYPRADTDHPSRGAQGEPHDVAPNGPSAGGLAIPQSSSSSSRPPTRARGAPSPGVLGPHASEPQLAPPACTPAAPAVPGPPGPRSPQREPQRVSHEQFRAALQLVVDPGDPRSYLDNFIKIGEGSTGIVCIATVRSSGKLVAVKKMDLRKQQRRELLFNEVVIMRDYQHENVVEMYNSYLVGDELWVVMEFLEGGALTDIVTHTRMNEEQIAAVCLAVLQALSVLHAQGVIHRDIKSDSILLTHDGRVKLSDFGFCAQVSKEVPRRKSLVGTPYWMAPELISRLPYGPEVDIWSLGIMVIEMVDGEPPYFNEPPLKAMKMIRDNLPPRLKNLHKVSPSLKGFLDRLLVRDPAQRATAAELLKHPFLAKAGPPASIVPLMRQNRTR
T11 sequence (Q14289 425-683 limits assumed): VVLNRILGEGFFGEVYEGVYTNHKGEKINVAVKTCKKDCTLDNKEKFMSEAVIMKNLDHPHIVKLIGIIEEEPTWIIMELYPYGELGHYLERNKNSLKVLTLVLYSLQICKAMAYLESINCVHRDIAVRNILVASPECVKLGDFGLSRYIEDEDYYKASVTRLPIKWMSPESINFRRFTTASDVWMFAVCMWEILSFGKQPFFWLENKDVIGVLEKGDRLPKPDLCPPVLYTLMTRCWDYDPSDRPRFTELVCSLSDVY
T5 sequence (O96017 220-486 limits assumed): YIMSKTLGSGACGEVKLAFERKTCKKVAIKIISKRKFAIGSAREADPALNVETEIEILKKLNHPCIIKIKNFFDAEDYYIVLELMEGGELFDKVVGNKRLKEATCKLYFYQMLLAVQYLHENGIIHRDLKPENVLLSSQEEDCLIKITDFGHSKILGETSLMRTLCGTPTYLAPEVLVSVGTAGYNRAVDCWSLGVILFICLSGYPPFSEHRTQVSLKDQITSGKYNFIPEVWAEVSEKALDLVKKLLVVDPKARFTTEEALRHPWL
T3 sequence (Q9Y243 122-479): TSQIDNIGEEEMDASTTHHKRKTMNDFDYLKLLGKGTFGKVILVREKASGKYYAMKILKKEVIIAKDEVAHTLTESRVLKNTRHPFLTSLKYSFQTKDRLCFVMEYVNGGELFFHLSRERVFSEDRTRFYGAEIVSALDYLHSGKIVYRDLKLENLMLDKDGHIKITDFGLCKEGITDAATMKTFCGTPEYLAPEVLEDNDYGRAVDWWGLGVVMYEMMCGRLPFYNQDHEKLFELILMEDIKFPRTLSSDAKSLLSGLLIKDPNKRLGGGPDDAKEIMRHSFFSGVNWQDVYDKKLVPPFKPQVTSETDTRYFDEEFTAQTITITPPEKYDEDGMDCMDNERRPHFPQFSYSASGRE
T13 sequence (Q9P286 449-700 limits assumed): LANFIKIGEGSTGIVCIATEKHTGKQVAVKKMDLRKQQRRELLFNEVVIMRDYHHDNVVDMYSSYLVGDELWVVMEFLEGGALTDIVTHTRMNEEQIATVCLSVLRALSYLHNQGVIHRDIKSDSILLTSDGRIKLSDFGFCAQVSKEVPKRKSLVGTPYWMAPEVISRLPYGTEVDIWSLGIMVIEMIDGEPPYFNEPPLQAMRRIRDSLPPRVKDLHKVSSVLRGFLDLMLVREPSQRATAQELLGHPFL
T10 sequence (P07332 448-822 limits assumed): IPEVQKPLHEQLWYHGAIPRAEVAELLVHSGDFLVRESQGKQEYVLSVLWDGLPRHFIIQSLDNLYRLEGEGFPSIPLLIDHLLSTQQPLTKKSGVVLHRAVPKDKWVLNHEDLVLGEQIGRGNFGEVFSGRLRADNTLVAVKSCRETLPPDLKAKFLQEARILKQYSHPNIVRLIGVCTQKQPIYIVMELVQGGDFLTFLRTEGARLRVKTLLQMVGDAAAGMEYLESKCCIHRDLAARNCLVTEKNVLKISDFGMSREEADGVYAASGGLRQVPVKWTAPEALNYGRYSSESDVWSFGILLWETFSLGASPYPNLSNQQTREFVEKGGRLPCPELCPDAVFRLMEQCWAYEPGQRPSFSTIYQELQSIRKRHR
T12 sequence (O96013 321-572 limits assumed): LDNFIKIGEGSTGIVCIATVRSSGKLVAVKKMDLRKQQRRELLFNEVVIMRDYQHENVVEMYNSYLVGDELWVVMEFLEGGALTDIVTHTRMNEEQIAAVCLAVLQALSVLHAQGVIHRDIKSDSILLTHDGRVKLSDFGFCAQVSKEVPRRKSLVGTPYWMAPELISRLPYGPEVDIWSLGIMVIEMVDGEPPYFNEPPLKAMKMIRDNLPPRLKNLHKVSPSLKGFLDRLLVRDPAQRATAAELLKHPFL
T8 sequence (P07332 561-822 limits assumed): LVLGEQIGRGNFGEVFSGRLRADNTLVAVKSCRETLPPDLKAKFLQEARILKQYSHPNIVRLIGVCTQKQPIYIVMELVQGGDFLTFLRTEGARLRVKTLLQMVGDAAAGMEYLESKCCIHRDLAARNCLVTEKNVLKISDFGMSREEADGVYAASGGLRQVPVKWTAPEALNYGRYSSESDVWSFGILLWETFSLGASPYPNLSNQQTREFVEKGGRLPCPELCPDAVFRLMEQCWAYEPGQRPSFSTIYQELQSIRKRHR

As to `Cc1[nH]c(/C=C2\C(=O)Nc3ccc(S(=O)(=O)N(C)c4cccc(Cl)c4)cc32)c(C)c1C(=O)N1CCN(C)CC1` [Met Kinase Inhibitor], the “Melting temperature (Tm) shift” value on DMPK Catalytic Domain came to 1.2 degrees Celcius; at CDK2 + Cyclin E it was 0.1; on AKT3 Catalytic Domain, 0.0 degrees Celcius; in [1], 0.3 degrees Celcius; on CHK2 Catalytic Domain it was 1.2 degrees Celcius; on STK3 Catalytic Domain, 0.7 degrees Celcius. In addition, the “Melting temperature (Tm) shift” value on SRC Catalytic Domain was 0.3 degrees Celcius; in test [2], 0.9 degrees Celcius; at FES Catalytic Domain, 0.6 degrees Celcius; at CDK2 + Cyclin A it was 0.4; on FES Catalytic Domain+SH2, 0.1 degrees Celcius; at FAK2 Catalytic Domain it was 0.1 degrees Celcius. For the same compound, the “Melting temperature (Tm) shift” value amounted to 0.9 degrees Celcius on PAK4 Catalytic Domain, 0.2 degrees Celcius at PAK7 Catalytic Domain and 0.2 degrees Celcius in test [3].

On to `N#CCCc1ccc2c(c1)-c1[nH]c3ccc([N+](=O)[O-])cc3c1CC(=O)N2` [Alsterpaullone, 2-Cyanoethyl], for which the “Melting temperature (Tm) shift” value at DMPK Catalytic Domain came out at 3.4 degrees Celcius; at CDK2 + Cyclin E (setting [4]), 0.5 degrees Celcius; on AKT3 Catalytic Domain, 0.1 degrees Celcius; in [1], 0.3 degrees Celcius; at CHK2 Catalytic Domain, 1.9 degrees Celcius; at STK3 Catalytic Domain, 1.7 degrees Celcius. The “Melting temperature (Tm) shift” value at SRC Catalytic Domain is listed as 0.2 degrees Celcius; in test [2], 1.5 degrees Celcius; on FES Catalytic Domain, 1.3 degrees Celcius; at CDK2 + Cyclin A (setting [5]), 0.5 degrees Celcius; at FES Catalytic Domain+SH2, 0.3 degrees Celcius; at FAK2 Catalytic Domain, 0.6 degrees Celcius. Further, the “Melting temperature (Tm) shift” value at PAK4 Catalytic Domain is on record as 0.9 degrees Celcius; on PAK7 Catalytic Domain it was 1.3 degrees Celcius; in test [3], 0.3 degrees Celcius.

Take `N#Cc1cnc2cnc(NCc3cccnc3)cc2c1Nc1ccc(F)c(Cl)c1` [Tpl2 Kinase Inhibitor]: the “Melting temperature (Tm) shift” value was determined as 1.4 degrees Celcius at DMPK Catalytic Domain; 0.5 degrees Celcius at CDK2 + Cyclin E (setting [4]); 0.1 degrees Celcius on AKT3 Catalytic Domain; 0.6 degrees Celcius in [1]; 0.3 degrees Celcius at CHK2 Catalytic Domain; 0.2 degrees Celcius on STK3 Catalytic Domain. The “Melting temperature (Tm) shift” value on SRC Catalytic Domain is recorded as 0.2 degrees Celcius; in test [2] it was 0.4 degrees Celcius; on FES Catalytic Domain, 0.0 degrees Celcius; on CDK2 + Cyclin A (setting [5]), 0.2 degrees Celcius; at FES Catalytic Domain+SH2, 0.2 degrees Celcius; on FAK2 Catalytic Domain, 0.5 degrees Celcius. Further, the figures for the “Melting temperature (Tm) shift” value (at PAK4 Catalytic Domain; on PAK7 Catalytic Domain; in test [3]) were 0.5 degrees Celcius, 0.1 degrees Celcius and 0.1 degrees Celcius, respectively.

For Wee1/Chk1 Inhibitor, the “Melting temperature (Tm) shift” value at DMPK Catalytic Domain was 2.2 degrees Celcius; on CDK2 + Cyclin E (setting [4]) it was 0.8 degrees Celcius; on AKT3 Catalytic Domain, 0.1 degrees Celcius; in test [1], 1.5 degrees Celcius; on CHK2 Catalytic Domain, 5.9 degrees Celcius; on STK3 Catalytic Domain, 1.1 degrees Celcius. Besides, the “Melting temperature (Tm) shift” value at SRC Catalytic Domain worked out at 0.1 degrees Celcius; in test [2], 3.7 degrees Celcius; on FES Catalytic Domain it was 0.2 degrees Celcius; at CDK2 + Cyclin A (setting [5]), 0.2 degrees Celcius; on FES Catalytic Domain+SH2 it was 0.2 degrees Celcius; on FAK2 Catalytic Domain it was 0.3 degrees Celcius. Also, the “Melting temperature (Tm) shift” value on PAK4 Catalytic Domain is on record as 0.7 degrees Celcius; at PAK7 Catalytic Domain it was 1.0 degrees Celcius; in test [3], 0.1 degrees Celcius.

Consider `CCCCc1c(-c2ccc(O)cc2)[nH]c2nccnc12` [Aloisine A, RP107, Aloisine A], for which the “Melting temperature (Tm) shift” value amounted to 1.4 degrees Celcius on DMPK Catalytic Domain; 1.4 degrees Celcius on CDK2 + Cyclin E (setting [4]); 0.1 degrees Celcius on AKT3 Catalytic Domain; 1.3 degrees Celcius in test [1]; 2.7 degrees Celcius at CHK2 Catalytic Domain; 1.6 degrees Celcius on STK3 Catalytic Domain. The “Melting temperature (Tm) shift” value came out at 1.5 degrees Celcius at SRC Catalytic Domain; 1.4 degrees Celcius in test [2]; 0.9 degrees Celcius at FES Catalytic Domain; 2.5 degrees Celcius on CDK2 + Cyclin A (setting [5]); 0.5 degrees Celcius on FES Catalytic Domain+SH2; 1.2 degrees Celcius on FAK2 Catalytic Domain. For the same compound, the results for the “Melting temperature (Tm) shift” value (at PAK4 Catalytic Domain; on PAK7 Catalytic Domain; in test [3]) were 1.3 degrees Celcius, 1.2 degrees Celcius and 1.1 degrees Celcius, respectively.

As to DNA-PK Inhibitor V, the “Melting temperature (Tm) shift” value on DMPK Catalytic Domain turned out to be 0.6 degrees Celcius; on CDK2 + Cyclin E (setting [4]), 0.2 degrees Celcius; on AKT3 Catalytic Domain, 0.1 degrees Celcius; in test [1], 0.5 degrees Celcius; at CHK2 Catalytic Domain, 0.2 degrees Celcius; on STK3 Catalytic Domain, 0.0 degrees Celcius. For the same compound, the “Melting temperature (Tm) shift” value at SRC Catalytic Domain turned out to be 0.2 degrees Celcius; in test [2], 0.5 degrees Celcius; on FES Catalytic Domain, 0.1 degrees Celcius; on CDK2 + Cyclin A (setting [5]), 0.0 degrees Celcius; on FES Catalytic Domain+SH2 it was 0.3 degrees Celcius; at FAK2 Catalytic Domain, 0.3 degrees Celcius. In addition, the figures for the “Melting temperature (Tm) shift” value (at PAK4 Catalytic Domain; at PAK7 Catalytic Domain; in [3]) were 0.4 degrees Celcius, 0.0 degrees Celcius and 0.0 degrees Celcius, respectively.
